Measurements published in patent US20210121376A1, “PEPTIDES ENCAPSULATED IN LECITHIN AND ALGINATE” (INFINITEC ACTIVOS, S.L., priority 2018, published 2021).
Peptide text beside a SMILES is read from it. * marks the point of attachment. Palmitoyl = CCCCCCCCCCCCCCCC(=O)*; X1 = NCOCCOCCOCCCN*

Legend:
papain [1] = molecular target: T1, papain (Carica papaya, UniProt P00784); assay: Peptide degradation by proteases (Example 8b, PH-26 peptide); assay type: in vitro ADME
T1 sequence (P00784 134-345): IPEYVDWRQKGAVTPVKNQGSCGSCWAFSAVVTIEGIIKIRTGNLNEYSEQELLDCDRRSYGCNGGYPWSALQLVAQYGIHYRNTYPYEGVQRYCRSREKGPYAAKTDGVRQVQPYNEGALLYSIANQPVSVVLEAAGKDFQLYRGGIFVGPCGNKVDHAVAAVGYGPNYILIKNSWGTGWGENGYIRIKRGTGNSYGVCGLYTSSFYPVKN
Protocol: b) 20 mg of papain were added to the formulation of Comparative example 6c, and 1.5 mg of papain were added to a solution of 40 mg of the formulation of Example 1c in 1.0 mL of PBS buffer. Both samples were incubated at 40° C. Aliquots were taken at study times 0 h, 0.17 h, 0.3 h and 24 h, after the addition of papain, centrifuged at 1400 rpm for 1 min, and the supernatant was filtered using a 0.45 μm filter and analyzed by HPLC.
(§1) HPLC analysis was carried out in a Waters 996 instrument with a diode array detector equipped with Waters 2695 separations module and Millenium software; an Xbridge BEH130 C18 4.6×100 mm 3.5 μm reversed phase column by Waters was used. UV detection was performed at 220 nm and a mobile phase B gradient of 5 to 100% was performed for 8 minutes at 1.0 ml/min of flow. Under these conditions, the retention time of the peptide of formula (I) wherein R is palmitoyl (Matrixyl®, PP-4) is 6.4 min. Mobile phase A: 0.045% TFA/H2O, mobile phase B: 0.036% TFA/acetonitrile.

papain [2] = molecular target: T1, papain; assay: Peptide degradation by proteases (Example 8a, PP-4 peptide); assay type: in vitro ADME
Protocol: a) 5 mg of each of the formulations of Example 1b and Comparative example 6b were incubated at 40° C. with 20 mg of papain. Samples were taken at study times 0 h, 0.3 h, 0.6 h, and 5 h after the addition of papain, centrifuged at 1400 rpm for 1 min, and the supernatant was filtered using a 0.45 μm filter and analyzed by HPLC.
as §1

Row | SMILES | degradation with papain (in words) (papain [1]) | degradation with papain (in words) (papain [2])
1 | CCCCCCCCCCCCCCCC(=O)N[C@@H](CCCCN)C(=O)N[C@@H](C)C(=O)N[C@@H](CCC(N)=O)C(=O)N[C@@H](CCCCN)C(=O)N[C@@H](CCCNC(=N)N)C(=O)N[C@@H](Cc1ccccc1)C(=O)NCCCOCCOCCOCN [PH-26 peptide, R1-L-Lys-L-Ala-L-Gln-L-Lys-L-Arg-L-Phe-NH—(CH2)3—O—(CH2)2—O—(CH2)2—O—(CH2)—NH2] (Palmitoyl-KAQKRF-X1; N-terminus and C-terminus assumed) | nearly completely degraded | 
2 | CCCCCCCCCCCCCCCC(=O)N[C@@H](CCCCN)C(=O)N[C@H](C(=O)N[C@H](C(=O)N[C@@H](CCCCN)C(=O)N[C@@H](CO)C(=O)O)[C@@H](C)O)[C@@H](C)O [PP-4, Palm-L-Lys-L-Thr-L-Thr-L-Lys-L-Ser-OH] (Palmitoyl-KTTKS-OH) |  | completely degraded
